From PubChem BioAssay (NCI)
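The compound was tested at five concentrations on cells cultured in 96-well plates, with a 48-hour exposure period. The concentration for full growth arrest is given as TGI.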

Key:
Test in all cases: NCI anticancer screen, dose series, 48 h
OVCAR-4 ovarian = tested on: OVCAR-4 ovarian
T-47D breast = tested on: T-47D breast
CAKI-1 renal = tested on: CAKI-1 renal
OVCAR-5 ovarian = tested on: OVCAR-5 ovarian
SNB-19 CNS = tested on: SNB-19 CNS
OVCAR-8 ovarian = tested on: OVCAR-8 ovarian
U251 CNS = tested on: U251 CNS
MDA-MB-435 = tested on: MDA-MB-435
HCT-15 colon = tested on: HCT-15 colon
MDA-MB-231 breast = tested on: MDA-MB-231 breast
HCT-116 colon = tested on: HCT-116 colon
SNB-75 CNS = tested on: SNB-75 CNS
IGROV1 ovarian = tested on: IGROV1 ovarian
RPMI-8226 leukemia = tested on: RPMI-8226 leukemia
NCI-H460 lung = tested on: NCI-H460 lung
A549 NSCLC = tested on: A549 NSCLC
M14 melanoma = tested on: M14 melanoma
PC-3 prostate = tested on: PC-3 prostate
UACC-62 melanoma = tested on: UACC-62 melanoma
K-562 leukemia = tested on: K-562 leukemia
786-0 renal = tested on: 786-0 renal
MDA-N = tested on: MDA-N
NCI/ADR-RES ovarian = tested on: NCI/ADR-RES ovarian
UO-31 renal = tested on: UO-31 renal
SK-OV-3 ovarian = tested on: SK-OV-3 ovarian
NCI-H23 lung = tested on: NCI-H23 lung
RXF 393 renal = tested on: RXF 393 renal
SF-539 CNS = tested on: SF-539 CNS
NCI-H522 lung = tested on: NCI-H522 lung
A498 renal = tested on: A498 renal
HS 578T breast = tested on: HS 578T breast
TK-10 renal = tested on: TK-10 renal
SN12C renal = tested on: SN12C renal
HOP-92 NSCLC = tested on: HOP-92 NSCLC
SK-MEL-5 melanoma = tested on: SK-MEL-5 melanoma
ACHN renal = tested on: ACHN renal
MCF7 breast = tested on: MCF7 breast
SK-MEL-28 melanoma = tested on: SK-MEL-28 melanoma
HCC-2998 colon = tested on: HCC-2998 colon
SW-620 colon = tested on: SW-620 colon
UACC-257 melanoma = tested on: UACC-257 melanoma
NCI-H226 lung = tested on: NCI-H226 lung
DU-145 prostate = tested on: DU-145 prostate
SF-295 CNS = tested on: SF-295 CNS
BT-549 breast = tested on: BT-549 breast
SK-MEL-2 melanoma = tested on: SK-MEL-2 melanoma
COLO 205 colon = tested on: COLO 205 colon
KM12 colon = tested on: KM12 colon
OVCAR-3 ovarian = tested on: OVCAR-3 ovarian
HOP-62 NSCLC = tested on: HOP-62 NSCLC
EKVX NSCLC = tested on: EKVX NSCLC
SF-268 CNS = tested on: SF-268 CNS
HT29 colon = tested on: HT29 colon
MOLT-4 leukemia = tested on: MOLT-4 leukemia
LOX IMVI melanoma = tested on: LOX IMVI melanoma
HL-60(TB) leukemia = tested on: HL-60(TB) leukemia
MALME-3M melanoma = tested on: MALME-3M melanoma
CCRF-CEM leukemia = tested on: CCRF-CEM leukemia

Clc1ccc(N=C2c3ccccc3CN2c2ccc(Cl)cc2)cc1
TGI (OVCAR-4 ovarian): > 100 µM
TGI (T-47D breast): 94 µM
TGI (CAKI-1 renal): > 100 µM
TGI (OVCAR-5 ovarian): > 100 µM
TGI (SNB-19 CNS): > 100 µM
TGI (OVCAR-8 ovarian): > 100 µM
TGI (U251 CNS): > 100 µM
TGI (MDA-MB-435): > 100 µM
TGI (HCT-15 colon): > 100 µM
TGI (MDA-MB-231 breast): > 100 µM
TGI (HCT-116 colon): > 100 µM
TGI (SNB-75 CNS): > 100 µM
TGI (IGROV1 ovarian): > 100 µM
TGI (RPMI-8226 leukemia): > 100 µM
TGI (NCI-H460 lung): > 100 µM
TGI (A549 NSCLC): > 100 µM
TGI (M14 melanoma): > 100 µM
TGI (PC-3 prostate): > 100 µM
TGI (UACC-62 melanoma): > 100 µM
TGI (K-562 leukemia): > 100 µM
TGI (786-0 renal): > 100 µM
TGI (MDA-N): > 100 µM
TGI (NCI/ADR-RES ovarian): > 100 µM
TGI (UO-31 renal): > 100 µM
TGI (SK-OV-3 ovarian): > 100 µM
TGI (NCI-H23 lung): > 100 µM
TGI (RXF 393 renal): > 100 µM
TGI (SF-539 CNS): > 100 µM
TGI (NCI-H522 lung): > 100 µM
TGI (A498 renal): > 100 µM
TGI (HS 578T breast): > 100 µM
TGI (TK-10 renal): > 100 µM
TGI (SN12C renal): > 100 µM
TGI (HOP-92 NSCLC): > 100 µM
TGI (SK-MEL-5 melanoma): > 100 µM
TGI (ACHN renal): > 100 µM
TGI (MCF7 breast): > 100 µM
TGI (SK-MEL-28 melanoma): > 100 µM
TGI (HCC-2998 colon): > 100 µM
TGI (SW-620 colon): > 100 µM
TGI (UACC-257 melanoma): > 100 µM
TGI (NCI-H226 lung): > 100 µM
TGI (DU-145 prostate): > 100 µM
TGI (SF-295 CNS): > 100 µM
TGI (BT-549 breast): > 100 µM
TGI (SK-MEL-2 melanoma): > 100 µM
TGI (COLO 205 colon): > 100 µM
TGI (KM12 colon): > 100 µM
TGI (OVCAR-3 ovarian): > 100 µM
TGI (HOP-62 NSCLC): > 100 µM
TGI (EKVX NSCLC): > 100 µM
TGI (SF-268 CNS): > 100 µM
TGI (HT29 colon): > 100 µM
TGI (MOLT-4 leukemia): > 100 µM
TGI (LOX IMVI melanoma): > 100 µM

COC(=O)[C@]1(C)CC[C@]2(C)CC[C@]3(C)C4[C@H]5Oc6c(cc7c(c6C)CCC6[C@@]7(C)CC[C@@]7(C)C8[C@](C)(CCC[C@@]8(C)C(=O)OC)CC[C@]67C)O[C@H]5c5c(cc6c(c5C)O[C@@]5(C)C7=CC=C8[C@@](C)(CC[C@@]9(C)[C@@H]%10C[C@](C)(C(=O)OC)CC[C@]%10(C)CC[C@]89C)C7=CC(=O)[C@@]5(O)O6)[C@]4(C)CC[C@@]3(C)C2C1 (stereo partly specified)
TGI (OVCAR-4 ovarian): > 12.5 µM
TGI (T-47D breast): 6.94 µM
TGI (CAKI-1 renal): > 12.5 µM
TGI (OVCAR-5 ovarian): > 12.5 µM
TGI (SNB-19 CNS): > 12.5 µM
TGI (OVCAR-8 ovarian): 5.95 µM
TGI (U251 CNS): 11.4 µM
TGI (MDA-MB-435): 12.2 µM
TGI (HCT-15 colon): 11.5 µM
TGI (MDA-MB-231 breast): 7.08 µM
TGI (HCT-116 colon): 6.63 µM
TGI (SNB-75 CNS): 10.5 µM
TGI (IGROV1 ovarian): 5.81 µM
TGI (HL-60(TB) leukemia): > 12.5 µM
TGI (NCI-H460 lung): > 12.5 µM
TGI (A549 NSCLC): > 12.5 µM
TGI (M14 melanoma): > 12.5 µM
TGI (PC-3 prostate): > 12.5 µM
TGI (UACC-62 melanoma): 4.61 µM
TGI (K-562 leukemia): 11.6 µM
TGI (786-0 renal): 3.59 µM
TGI (MDA-N): 4.02 µM
TGI (NCI/ADR-RES ovarian): > 12.5 µM
TGI (UO-31 renal): 5.11 µM
TGI (SK-OV-3 ovarian): > 12.5 µM
TGI (NCI-H23 lung): > 12.5 µM
TGI (RXF 393 renal): 4.01 µM
TGI (MALME-3M melanoma): > 12.5 µM
TGI (SF-539 CNS): 5.41 µM
TGI (NCI-H522 lung): 5.9 µM
TGI (A498 renal): > 12.5 µM
TGI (HS 578T breast): > 12.5 µM
TGI (TK-10 renal): 6.07 µM
TGI (SN12C renal): 5.31 µM
TGI (HOP-92 NSCLC): 4.5 µM
TGI (SK-MEL-5 melanoma): > 12.5 µM
TGI (ACHN renal): > 12.5 µM
TGI (MCF7 breast): 9.73 µM
TGI (SK-MEL-28 melanoma): > 12.5 µM
TGI (SW-620 colon): 6.69 µM
TGI (UACC-257 melanoma): 6.52 µM
TGI (NCI-H226 lung): > 12.5 µM
TGI (DU-145 prostate): > 12.5 µM
TGI (SF-295 CNS): > 12.5 µM
TGI (BT-549 breast): > 12.5 µM
TGI (SK-MEL-2 melanoma): 6.14 µM
TGI (COLO 205 colon): > 12.5 µM
TGI (KM12 colon): > 12.5 µM
TGI (OVCAR-3 ovarian): 5.91 µM
TGI (HOP-62 NSCLC): > 12.5 µM
TGI (EKVX NSCLC): 10.5 µM
TGI (CCRF-CEM leukemia): 4.9 µM
TGI (SF-268 CNS): > 12.5 µM
TGI (HT29 colon): > 12.5 µM
TGI (MOLT-4 leukemia): 4.85 µM
TGI (LOX IMVI melanoma): 4.56 µM
